Active and inactive are the calls of the source. The rule behind the calls is not given here.
Legend:
PC-12 [1] = test: Potentiation of NGF-induced neurite outgrowth in rat PC12 cells at 0.1 to 10 uM after 4 days using methylene blue staining by phase-contrast microscopy; format: functional, cell-based
PC-12 [2] = test: Potentiation of NGF-induced neurite outgrowth in rat PC12 cells after 4 days using methylene blue staining by phase-contrast microscopy; format: functional, cell-based

SMILES	Activity (PC-12 [1])	Activity (PC-12 [2])
O=C(/C=C/C=C/c1ccc2c(c1)OCO2)N1CCCCC1	inactive	–
O=C(CCC(=O)c1ccc2c(c1)OCO2)C(=O)N1CCCCC1	–	Dose-dependent effect
O=C(/C=C/CCCCCCCC/C=C/c1ccc2c(c1)OCO2)N1CCCCC1	inactive	–
CCCCC/C=C\CCCC/C=C/C=C/C(=O)NCC(C)C	inactive	–

Reference: ChEMBL document CHEMBL2331478, “Evaluation of constituents of Piper retrofractum fruits on neurotrophic activity” (J Nat Prod, 2013)
